Results: ChEMBL document CHEMBL1148702, “Orally bioavailable potent soluble epoxide hydrolase inhibitors” (J Med Chem, 2007)

Tested on: Liver microsomes
Test: not given
Details: human

| SMILES | Stability [%] |
| --- | --- |
| O=C(NC12CC3CC(CC(C3)C1)C2)N[C@H]1CC[C@H](OCc2c(F)cccc2F)CC1 | 43 |
| O=C(NC12CC3CC(CC(C3)C1)C2)N[C@H]1CC[C@@H](OCc2ccc(Br)cc2)CC1 | 20 |
| O=C(NC12CC3CC(CC(C3)C1)C2)N[C@H]1CC[C@H](OCc2c(Cl)cccc2Cl)CC1 | 51 |
| Cc1ccccc1CO[C@H]1CC[C@@H](NC(=O)NC23CC4CC(CC(C4)C2)C3)CC1 | 14 |
| O=C(NC12CC3CC(CC(C3)C1)C2)N[C@H]1CC[C@@H](Oc2cc(F)cc(F)c2)CC1 | 20 |
| O=C(NC12CC3CC(CC(C3)C1)C2)N[C@H]1CC[C@@H](OCc2c(Cl)cccc2Cl)CC1 | 26 |
| CC(C)Oc1cc(F)c(CO[C@H]2CC[C@@H](NC(=O)NC34CC5CC(CC(C5)C3)C4)CC2)c(F)c1 | 29 |
| O=C(NC12CC3CC(CC(C3)C1)C2)N[C@H]1CC[C@@H](OCc2ccccc2Cl)CC1 | 25 |
| CC(C)Oc1cc(F)c(CO[C@H]2CC[C@H](NC(=O)NC34CC5CC(CC(C5)C3)C4)CC2)c(F)c1 | 34 |
| O=C(NC12CC3CC(CC(C3)C1)C2)N[C@H]1CC[C@H](OCc2ccccc2Cl)CC1 | 54 |
| O=C(NC12CC3CC(CC(C3)C1)C2)N[C@H]1CC[C@H](OCc2ccccc2)CC1 | 67 |
| O=C(NC12CC3CC(CC(C3)C1)C2)N[C@H]1CC[C@H](OCc2ccc(Br)cc2)CC1 | 41 |
| O=C(NC12CC3CC(CC(C3)C1)C2)N[C@H]1CC[C@@H](OCc2c(F)cccc2F)CC1 | 19 |
| Cc1ccccc1CO[C@H]1CC[C@H](NC(=O)NC23CC4CC(CC(C4)C2)C3)CC1 | 67 |

Now from value to compound:

| Stability [%] | SMILES |
| --- | --- |
| 35 | O=C(NC12CC3CC(CC(C3)C1)C2)N[C@H]1CC[C@@H](Oc2ccc(Br)cc2)CC1 |
| 21 | O=C(NC12CC3CC(CC(C3)C1)C2)N[C@H]1CC[C@@H](Oc2ccc(F)cc2)CC1 |
| 23 | O=C(NC12CC3CC(CC(C3)C1)C2)N[C@H]1CC[C@H](Oc2ccc(Br)cc2)CC1 |
| 15 | O=C(NC12CC3CC(CC(C3)C1)C2)N[C@H]1CC[C@@H](Oc2ccc([N+](=O)[O-])cc2)CC1 |
| 82 | COc1ccc(O[C@H]2CC[C@H](NC(=O)NC34CC5CC(CC(C5)C3)C4)CC2)cc1 |
| 69 | O=C(NC12CC3CC(CC(C3)C1)C2)N[C@H]1CC[C@H](Oc2ccc(F)cc2)CC1 |
| 14 | COc1ccc(O[C@H]2CC[C@@H](NC(=O)NC34CC5CC(CC(C5)C3)C4)CC2)cc1 |

Tested on: not listed separately
Test: in vivo
Details: dog, plasma, po, 0.3 mg/kg

| AUC [µM·h] | SMILES |
| --- | --- |
| 0.317 | CCOCCOCCOCCCCCNC(=O)NC12CC3CC(CC(C3)C1)C2 |
| 0.0667 | O=C(O)CCCCCCCCCCCNC(=O)NC12CC3CC(CC(C3)C1)C2 |
